Laboratory results reported in the NIST ThermoML archive (doi:10.1007/s10765-010-0862-1).

Columns and labels:
[1] = mn = molality of the nth substance listed, in mol/kg; conditions: 101.3 kPa, Liquid
[2] = 101.3 kPa, Liquid

NCCCC(=O)O [4-aminobutanoic acid] + O
[1]
Conditions	mass density, m1 = 0.02 [kg/m3]	mass density, m1 = 0.04 [kg/m3]	mass density, m1 = 0.06 [kg/m3]	mass density, m1 = 0.08 [kg/m3]	mass density, m1 = 0.1 [kg/m3]	speed of sound, m1 = 0.02 [m/s]	speed of sound, m1 = 0.04 [m/s]	speed of sound, m1 = 0.06 [m/s]	speed of sound, m1 = 0.08 [m/s]	speed of sound, m1 = 0.1 [m/s]
308.15 K	994.6	995.2	995.8	996.4	997	1521.8	1523	1524.3	1525.6	1527
313.15 K	992.8	993.4	994	994.6	995.2	1529.4	1530.7	1532	1533.3	1534.6
318.15 K	990.8	991.4	992	992.6	993.2	1536.5	1537.7	1538.9	1540.1	1541.3

CN(C)C(=N)NC(=N)N.Cl [N,N-dimethylimidodicarbonimidic diamide hydrochloride] + O
[1]
Conditions	mass density, 308.15 K [kg/m3]	mass density, 313.15 K [kg/m3]	mass density, 318.15 K [kg/m3]	speed of sound, 308.15 K [m/s]	speed of sound, 313.15 K [m/s]	speed of sound, 318.15 K [m/s]
m1 = 0.05	997.5	996	994.3	1527.4	1534.4	1539.2
m1 = 0.1	999.1	997.2	995.5	1529	1537.8	1541
m1 = 0.15	1000.2	998.8	997.2	1530	1541.2	1543.8

O [water]
[2]
Conditions	speed of sound [m/s]
313.15 K	1528
318.15 K	1535.2
